In patent publication US7626031B2, “Substituted 3-(diarylmethylene)indolin-2-ones and methods of their use” (Symphony Evolution, Inc., priority 2002, dated 2009) one finds IC50 data, which are given here for 13 compounds.

A value given as a limit tells only on which side of the number the result lay.

As a reminder, the IC50 is the point on the concentration scale where inhibition reaches its midpoint.

The target of one experiment is Flt-1 (Homo sapiens, UniProt P17948). Description: Kinase assay, Flt-1 (33P-ATP incorporation or luciferase-coupled ATP consumption). Format: biochemical. The note with it: read-out: Flt1 IC50. The method, then:
Kinase assays were performed by measurement of incorporation of γ-^33P ATP into immobilized myelin basic protein (MBP). […] Plates were washed 3× with 100 μl TBS. […] Compound dilutions were performed in DMSO and added to assay wells to a final DMSO concentration of 1%. Each data point was measured in duplicate, and at least two duplicate assays were performed for each individual compound determination. Enzyme was added to final concentrations of 10 nM or 20 nM, for example. A mixture of unlabeled ATP and γ-^33P ATP was added to start the reaction (2×10^6 cpm of γ-^33P ATP per well (3000 Ci/mmole) and either 10 μM or 30 μM unlabeled ATP, typically. The reactions were carried out for 1 hour at room temperature with shaking. Plates were washed 7× with TBS, followed by the addition of 50 μl/well scintillation fluid (Wallac). Plates were read using a Wallac Trilux counter. This is only one format of such assays, various other formats are possible, as known to one of ordinary skill in the art.
Tyrosine kinase activity is determined by 1) measurement of kinase-dependent ATP consumption by in the presence of a generic substrate such as, polyglutamic acid, tyrosine, 4:1 (pEY), by luciferase/luciferin-mediated chemiluminescence or; 2) incorporation of radioactive phosphate derived from ^33P-ATP into a generic substrate which has been adsorbed onto the well surface of polystyrene microtiter plates. Phosphorylated substrate products are quantified by scintillation spectrometry.
(§1) Kinase activity and compound inhibition are investigated using one or more assay formats. The ATP concentrations for each assay are selected to be close to the Michaelis-Menten constant (KM) for each individual kinase. Dose-response experiments are performed at 10 different inhibitor concentrations in a 384-well plate format. […] Exemplary kinase assays are described below. KDR Assay

In another experiment the target is EGFR (Homo sapiens, UniProt P00533). Put plainly: Kinase assay, EGFR (33P-ATP incorporation or luciferase-coupled ATP consumption). Type of experiment: biochemical. In short, it runs like this:
(§2)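 Two formats used: luciferase/luciferin chemiluminescence of ATP consumed with pEY, or radiometric 33P transfer to plate-bound MBP or pEY read by scintillation.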

In a further experiment the target is PDGFR alpha (Homo sapiens, UniProt P16234). Put plainly: Kinase assay, PDGFR alpha (33P-ATP incorporation or luciferase-coupled ATP consumption). Format: biochemical. The note with it: read-out: PDGF-R-A IC50. In short, it runs like this: as §2
Chain of PDGFR alpha (P16234 24-1089): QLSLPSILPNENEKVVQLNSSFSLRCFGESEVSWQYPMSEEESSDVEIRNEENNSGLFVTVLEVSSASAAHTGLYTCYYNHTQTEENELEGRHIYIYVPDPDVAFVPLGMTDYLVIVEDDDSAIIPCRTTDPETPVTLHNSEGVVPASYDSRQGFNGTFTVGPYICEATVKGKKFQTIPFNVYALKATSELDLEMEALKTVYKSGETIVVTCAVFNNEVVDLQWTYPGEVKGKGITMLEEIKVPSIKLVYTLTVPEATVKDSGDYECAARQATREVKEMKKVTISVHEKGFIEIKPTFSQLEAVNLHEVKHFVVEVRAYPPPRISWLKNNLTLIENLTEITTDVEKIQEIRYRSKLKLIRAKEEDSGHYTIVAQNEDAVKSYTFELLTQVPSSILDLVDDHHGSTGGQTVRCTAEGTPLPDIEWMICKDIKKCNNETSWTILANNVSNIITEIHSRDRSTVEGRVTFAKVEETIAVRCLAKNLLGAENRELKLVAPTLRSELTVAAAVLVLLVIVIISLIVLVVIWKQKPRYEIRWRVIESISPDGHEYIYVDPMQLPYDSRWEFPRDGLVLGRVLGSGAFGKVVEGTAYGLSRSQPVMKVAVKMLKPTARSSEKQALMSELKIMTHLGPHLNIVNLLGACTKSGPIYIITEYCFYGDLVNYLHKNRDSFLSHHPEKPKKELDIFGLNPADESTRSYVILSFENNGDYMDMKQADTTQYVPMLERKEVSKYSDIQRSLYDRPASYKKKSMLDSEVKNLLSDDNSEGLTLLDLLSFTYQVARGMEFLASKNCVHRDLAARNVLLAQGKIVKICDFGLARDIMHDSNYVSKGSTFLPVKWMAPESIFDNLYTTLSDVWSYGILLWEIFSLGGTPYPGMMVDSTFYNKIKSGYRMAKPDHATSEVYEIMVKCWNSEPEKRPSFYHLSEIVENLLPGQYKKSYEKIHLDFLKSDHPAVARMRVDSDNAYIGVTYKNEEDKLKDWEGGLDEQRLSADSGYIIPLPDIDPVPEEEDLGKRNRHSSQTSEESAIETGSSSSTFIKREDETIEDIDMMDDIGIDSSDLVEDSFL
Experiment [1] concerns the target T1, KDR (baculovirus expressed human KDR kinase domain D807-V1356) (Homo sapiens, UniProt P35968).
T1 construct: human KDR kinase domain D807-V1356; host or cells: baculovirus expression system
Put plainly: biochemical. Summed up:
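Baculovirus human KDR kinase domain (D807–V1356) with ATP near its KM; 10-point dose-response, 4 h at ambient temperature. Activity taken as percent ATP remaining, detected by luciferase–luciferin chemiluminescence.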

Another experiment deals with Fyn (Homo sapiens, UniProt P06241). Description: Kinase assay, Fyn. Format: biochemical. The method, then:
as §1

The target of another experiment is EphA2 (Homo sapiens, UniProt P29317). Description: Kinase assay, EphA2 (33P-ATP incorporation or luciferase-coupled ATP consumption). Type of experiment: biochemical. In short, it runs like this: as §2
A further experiment addresses IRK (Homo sapiens, UniProt P06213). Put plainly: Kinase assay, IRK. Type of experiment: biochemical. The method, then: as §1
Another experiment addresses FGFR1 (Homo sapiens, UniProt P11362). Put plainly: Kinase assay, FGFR1 (33P-ATP incorporation or luciferase-coupled ATP consumption). Type of experiment: biochemical. Summed up:
as §2

Chain of EGFR (P00533 25-1210, species assumed): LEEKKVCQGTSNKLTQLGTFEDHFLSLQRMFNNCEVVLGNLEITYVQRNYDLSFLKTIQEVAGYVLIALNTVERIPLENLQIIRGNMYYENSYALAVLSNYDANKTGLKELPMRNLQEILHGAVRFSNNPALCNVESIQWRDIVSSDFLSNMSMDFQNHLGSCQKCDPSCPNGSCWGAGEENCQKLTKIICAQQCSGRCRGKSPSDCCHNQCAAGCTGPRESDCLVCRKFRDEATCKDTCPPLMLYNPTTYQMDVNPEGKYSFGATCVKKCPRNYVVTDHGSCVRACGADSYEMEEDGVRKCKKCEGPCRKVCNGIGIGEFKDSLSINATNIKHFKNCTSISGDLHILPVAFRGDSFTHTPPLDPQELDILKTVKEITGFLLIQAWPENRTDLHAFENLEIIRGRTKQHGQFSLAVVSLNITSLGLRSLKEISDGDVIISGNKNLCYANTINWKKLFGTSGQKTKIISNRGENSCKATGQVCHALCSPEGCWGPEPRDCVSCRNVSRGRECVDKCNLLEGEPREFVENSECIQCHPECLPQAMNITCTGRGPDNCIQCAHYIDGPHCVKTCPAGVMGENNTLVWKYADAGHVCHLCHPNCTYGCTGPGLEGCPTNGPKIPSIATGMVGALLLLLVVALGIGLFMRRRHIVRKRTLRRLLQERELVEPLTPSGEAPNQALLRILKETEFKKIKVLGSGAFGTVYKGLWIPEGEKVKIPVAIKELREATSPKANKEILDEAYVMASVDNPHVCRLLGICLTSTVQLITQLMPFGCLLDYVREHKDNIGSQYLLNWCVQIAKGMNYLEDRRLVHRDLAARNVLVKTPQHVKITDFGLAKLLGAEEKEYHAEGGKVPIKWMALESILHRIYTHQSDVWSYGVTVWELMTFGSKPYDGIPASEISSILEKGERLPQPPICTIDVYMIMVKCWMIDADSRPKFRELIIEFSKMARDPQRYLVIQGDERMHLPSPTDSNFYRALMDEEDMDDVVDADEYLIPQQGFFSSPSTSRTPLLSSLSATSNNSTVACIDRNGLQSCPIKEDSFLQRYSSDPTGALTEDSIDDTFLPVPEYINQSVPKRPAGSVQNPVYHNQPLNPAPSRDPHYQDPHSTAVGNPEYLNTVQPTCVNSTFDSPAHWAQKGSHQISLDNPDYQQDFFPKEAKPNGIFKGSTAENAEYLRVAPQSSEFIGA
Chain of FGFR1 (P11362 22-822, species assumed): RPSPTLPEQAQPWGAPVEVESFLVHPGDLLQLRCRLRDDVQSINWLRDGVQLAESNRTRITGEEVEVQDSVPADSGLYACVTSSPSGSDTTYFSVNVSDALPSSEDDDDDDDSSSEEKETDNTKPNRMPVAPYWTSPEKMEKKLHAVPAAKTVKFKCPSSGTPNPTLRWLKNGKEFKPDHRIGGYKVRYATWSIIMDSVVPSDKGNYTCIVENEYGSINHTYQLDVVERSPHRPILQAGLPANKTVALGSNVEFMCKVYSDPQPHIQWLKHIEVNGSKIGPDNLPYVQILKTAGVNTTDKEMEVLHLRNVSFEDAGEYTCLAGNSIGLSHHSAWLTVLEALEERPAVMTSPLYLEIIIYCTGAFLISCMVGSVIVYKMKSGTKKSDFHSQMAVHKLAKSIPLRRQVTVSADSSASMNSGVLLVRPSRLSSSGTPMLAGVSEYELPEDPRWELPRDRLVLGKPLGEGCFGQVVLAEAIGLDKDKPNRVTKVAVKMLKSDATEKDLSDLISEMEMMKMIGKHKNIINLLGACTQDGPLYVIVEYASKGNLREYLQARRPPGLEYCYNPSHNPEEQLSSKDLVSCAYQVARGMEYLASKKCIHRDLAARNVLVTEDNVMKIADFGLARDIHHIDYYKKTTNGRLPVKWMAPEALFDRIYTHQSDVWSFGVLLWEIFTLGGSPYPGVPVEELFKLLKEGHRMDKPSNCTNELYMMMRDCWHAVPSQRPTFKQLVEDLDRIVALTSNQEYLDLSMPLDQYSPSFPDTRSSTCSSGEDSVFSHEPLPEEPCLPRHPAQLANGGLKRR
Chain of IRK (P06213 28-1382): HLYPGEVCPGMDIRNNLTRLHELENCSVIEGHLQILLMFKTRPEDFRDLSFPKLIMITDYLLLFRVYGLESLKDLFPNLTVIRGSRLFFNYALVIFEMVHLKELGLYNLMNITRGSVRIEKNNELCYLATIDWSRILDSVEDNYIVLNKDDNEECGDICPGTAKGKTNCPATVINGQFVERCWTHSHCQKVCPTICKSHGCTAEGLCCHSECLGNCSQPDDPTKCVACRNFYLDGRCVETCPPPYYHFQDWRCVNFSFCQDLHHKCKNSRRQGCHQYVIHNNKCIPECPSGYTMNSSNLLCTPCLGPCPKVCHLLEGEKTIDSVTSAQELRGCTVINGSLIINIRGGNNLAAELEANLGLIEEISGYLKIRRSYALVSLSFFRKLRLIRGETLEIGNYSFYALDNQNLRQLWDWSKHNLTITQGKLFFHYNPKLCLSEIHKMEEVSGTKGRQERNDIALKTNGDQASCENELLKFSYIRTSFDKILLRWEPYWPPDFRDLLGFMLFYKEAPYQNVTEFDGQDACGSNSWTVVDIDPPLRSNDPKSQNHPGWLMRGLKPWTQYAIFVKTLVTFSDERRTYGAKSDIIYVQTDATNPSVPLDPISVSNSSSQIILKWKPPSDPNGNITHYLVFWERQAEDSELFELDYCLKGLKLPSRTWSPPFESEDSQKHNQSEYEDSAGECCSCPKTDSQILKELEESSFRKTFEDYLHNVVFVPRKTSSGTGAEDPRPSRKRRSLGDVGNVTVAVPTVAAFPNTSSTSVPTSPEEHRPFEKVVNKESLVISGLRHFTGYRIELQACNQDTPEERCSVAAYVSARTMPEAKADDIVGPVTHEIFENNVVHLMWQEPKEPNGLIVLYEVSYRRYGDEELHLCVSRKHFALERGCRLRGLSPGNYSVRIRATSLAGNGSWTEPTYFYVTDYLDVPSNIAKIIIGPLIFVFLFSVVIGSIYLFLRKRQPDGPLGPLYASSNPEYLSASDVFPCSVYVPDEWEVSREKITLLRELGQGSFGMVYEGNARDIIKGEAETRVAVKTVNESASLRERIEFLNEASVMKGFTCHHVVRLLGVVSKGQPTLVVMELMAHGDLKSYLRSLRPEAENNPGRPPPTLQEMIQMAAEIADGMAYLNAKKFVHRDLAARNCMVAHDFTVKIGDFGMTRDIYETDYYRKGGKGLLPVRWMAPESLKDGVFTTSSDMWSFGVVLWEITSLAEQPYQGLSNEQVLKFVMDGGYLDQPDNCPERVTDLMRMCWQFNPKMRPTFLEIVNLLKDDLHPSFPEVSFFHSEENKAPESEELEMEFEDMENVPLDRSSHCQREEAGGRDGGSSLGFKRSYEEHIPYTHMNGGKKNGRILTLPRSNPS
Chain of Fyn (P06241 whole entry, species assumed): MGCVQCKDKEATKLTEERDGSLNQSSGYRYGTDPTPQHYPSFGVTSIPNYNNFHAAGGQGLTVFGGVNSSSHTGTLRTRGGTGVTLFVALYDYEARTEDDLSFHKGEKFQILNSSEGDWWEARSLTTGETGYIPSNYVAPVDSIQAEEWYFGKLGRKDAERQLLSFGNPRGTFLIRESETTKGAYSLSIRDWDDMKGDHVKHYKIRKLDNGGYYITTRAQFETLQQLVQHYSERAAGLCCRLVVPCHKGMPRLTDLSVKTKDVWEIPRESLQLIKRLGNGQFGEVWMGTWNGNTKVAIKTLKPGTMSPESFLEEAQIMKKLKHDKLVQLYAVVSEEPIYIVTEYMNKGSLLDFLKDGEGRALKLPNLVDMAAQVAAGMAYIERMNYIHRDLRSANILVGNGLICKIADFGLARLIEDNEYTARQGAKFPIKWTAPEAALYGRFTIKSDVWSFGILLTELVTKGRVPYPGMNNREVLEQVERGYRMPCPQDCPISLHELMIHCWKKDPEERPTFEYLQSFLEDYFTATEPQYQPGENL

Consider `COCCN1CCC(Nc2ccc3c(c2)/C(=C(\c2cccc(Cl)c2)c2ncc[nH]2)C(=O)N3)CC1` [Entry 40, (3Z)-3-[(3-chlorophenyl)(1H-imidazol-2-yl)methylidene]-5-({1-[2-(methyloxy)ethyl]piperidin-4-yl}amino)-1,3-dihydro-2H-indol-2-one], for which the half-maximal inhibitory concentration (IC50) on Flt-1 was 50 to 500 nM; on EGFR it was 500 to 5000 nM; on PDGFR alpha, less than 50 nM; in experiment [1], less than 50 nM; on Fyn, less than 50 nM; at EphA2 it was 500 to 5000 nM. For the same compound, the IC50 against IRK is 500 to 5000 nM; at FGFR1 it was less than 50 nM.

In the case of `COCCN1CCC(Oc2ccc3c(c2)/C(=C(\c2cc(F)cc(F)c2)c2nc4ccccc4[nH]2)C(=O)N3)CC1` [Entry 36, (3Z)-3-[1H-benzimidazol-2-yl(3,5-difluorophenyl)methylidene]-5-({1-[2-(methyloxy)ethyl]piperidin-4-yl}oxy)-1,3-dihydro-2H-indol-2-one], the IC50 is 500 to 5000 nM on Flt-1; 500 to 5000 nM at EGFR; less than 50 nM on PDGFR alpha; less than 50 nM in experiment [1]; less than 50 nM against Fyn; 500 to 5000 nM against EphA2. For the same compound, the IC50 on IRK lay in the range of 500 to 5000 nM; against FGFR1, 50 to 500 nM.

As to `CCN1CCC(Oc2ccc3c(c2)/C(=C(\c2cccc(Cl)c2)c2ncc[nH]2)C(=O)N3)CC1` [Entry 44, (3Z)-3-[(3-chlorophenyl)(1H-imidazol-2-yl)methylidene]-5-[(1-ethylpiperidin-4-yl)oxy]-1,3-dihydro-2H-indol-2-one], the half-maximal inhibitory concentration (IC50) on Flt-1 was 500 to 5000 nM; against EGFR, 500 to 5000 nM; at PDGFR alpha it was 50 to 500 nM; in experiment [1], less than 50 nM; against Fyn, 50 to 500 nM; against EphA2 it was 500 to 5000 nM. Also, the IC50 against IRK lay in the range of 500 to 5000 nM; at FGFR1 it was 50 to 500 nM.

Regarding `CCN1CCC(Nc2ccc3c(c2)/C(=C(\c2ccc(Cl)cc2)c2nc4ccccc4[nH]2)C(=O)N3)CC1` [Entry 45, (3Z)-3-[1H-benzimidazol-2-yl(4-chlorophenyl)methylidene]-5-[(1-ethylpiperidin-4-yl)amino]-1,3-dihydro-2H-indol-2-one], the half-maximal inhibitory concentration (IC50) on Flt-1 is less than 50 nM; against EGFR it was 50 to 500 nM; at PDGFR alpha, less than 50 nM; in experiment [1], less than 50 nM; against Fyn, less than 50 nM; against EphA2, 500 to 5000 nM. Also, the IC50 against IRK is 500 to 5000 nM; against FGFR1 it was 50 to 500 nM.

In the case of `CCN1CCC(Nc2ccc3c(c2)/C(=C(\c2cccc(OC)c2)c2nc4ccccc4[nH]2)C(=O)N3)CC1` [Entry 26, (3Z)-3-{1H-benzimidazol-2-yl [3-(methyloxy)phenyl]methylidene}-5-[(1-ethylpiperidin-4-yl)amino]-1,3-dihydro-2H-indol-2-one], the IC50 on Flt-1 was less than 50 nM; against EGFR it was 50 to 500 nM; on PDGFR alpha, less than 50 nM; in experiment [1], less than 50 nM; against Fyn it was less than 50 nM; on EphA2, 500 to 5000 nM. In addition, the 50% inhibitory concentration (IC50) on IRK was 500 to 5000 nM; on FGFR1, less than 50 nM.

Take `CCN1CCC(Oc2ccc3c(c2)/C(=C(\c2cc(F)cc(F)c2)c2nc4ccccc4[nH]2)C(=O)N3)CC1` [Entry 33, (3Z)-3-[1H-benzimidazol-2-yl(3,5-difluorophenyl)methylidene]-5-[(1-ethylpiperidin-4-yl)oxy]-1,3-dihydro-2H-indol-2-one]: the IC50 on Flt-1 is 50 to 500 nM; on EGFR, 500 to 5000 nM; at PDGFR alpha, less than 50 nM; in experiment [1], less than 50 nM; on Fyn, less than 50 nM; at EphA2, 500 to 5000 nM. Further, the IC50 was 500 to 5000 nM against IRK and 50 to 500 nM against FGFR1.

On to `COCCN1CCC(Nc2ccc3c(c2)/C(=C(\c2cc(F)cc(F)c2)c2nc4ccccc4[nH]2)C(=O)N3)CC1` [Entry 42], for which the IC50 was 50 to 500 nM at Flt-1; 50 to 500 nM on EGFR; less than 50 nM at PDGFR alpha; less than 50 nM in experiment [1]; less than 50 nM against Fyn; 500 to 5000 nM against EphA2. Besides, the half-maximal inhibitory concentration (IC50) is more than 5000 nM at IRK and less than 50 nM on FGFR1.

As to `CCN1CCC(Nc2ccc3c(c2)/C(=C(\c2ccc(C)c(F)c2)c2nc4ccccc4[nH]2)C(=O)N3)CC1` [Entry 50, (3Z)-3-[1H-benzimidazol-2-yl(3-fluoro-4-methylphenyl)methylidene]-5-{(1-ethylpiperidin-4-yl)amino]-1,3-dihydro-2H-indol-2-one], the IC50 at Flt-1 is less than 50 nM; against EGFR it was less than 50 nM; on PDGFR alpha it was less than 50 nM; in experiment [1], less than 50 nM; at Fyn, less than 50 nM; at EphA2, 500 to 5000 nM. Also, the IC50 was 500 to 5000 nM against IRK and less than 50 nM against FGFR1.

As to `COCCN1CCC(Nc2ccc3c(c2)/C(=C(\c2ccc(F)cc2)c2nc4ccccc4[nH]2)C(=O)N3)CC1` [Entry 47, (3Z)-3-[1H-benzimidazol-2-yl(4-fluorophenyl)methylidene]-5-({1-[2-(methyloxy)ethyl]piperidin-4-yl}amino)-1,3-dihydro-2H-indol-2-one], the 50% inhibitory concentration (IC50) on Flt-1 is 500 to 5000 nM; at EGFR it was 500 to 5000 nM; on PDGFR alpha, less than 50 nM; in experiment [1], less than 50 nM; against Fyn, 50 to 500 nM; against EphA2, 500 to 5000 nM. Further, the IC50 was in the range of 500 to 5000 nM against IRK and 50 to 500 nM at FGFR1.

As for `CCN1CCC(N(C)c2ccc3c(c2)/C(=C(\c2cccc(Cl)c2)c2nc4ccccc4[nH]2)C(=O)N3)CC1` [Entry 43], the half-maximal inhibitory concentration (IC50) at Flt-1 was 500 to 5000 nM; against EGFR, 500 to 5000 nM; on PDGFR alpha, 50 to 500 nM; in experiment [1], less than 50 nM; against Fyn, 50 to 500 nM; against EphA2, 500 to 5000 nM. For the same compound, the results for the IC50 at IRK and against FGFR1 were 500 to 5000 nM and 50 to 500 nM, respectively.

Turning to `COCCN1CCC(Nc2ccc3c(c2)/C(=C(\c2cccc(Cl)c2)c2nc4ccccc4[nH]2)C(=O)N3)CC1` [Entry 38, (3Z)-3-[1H-benzimidazol-2-yl(3-chlorophenyl)methylidene]-5-({1-[2-(methyloxy)ethyl]piperidin-4-yl}amino)-1,3-dihydro-2H-indol-2-one], the IC50 was 50 to 500 nM at Flt-1; 500 to 5000 nM against EGFR; less than 50 nM on PDGFR alpha; less than 50 nM in experiment [1]; less than 50 nM on Fyn; 500 to 5000 nM against EphA2. The IC50 against IRK is 500 to 5000 nM; at FGFR1, less than 50 nM.

With `CCN1CCC(Nc2ccc3c(c2)/C(=C(\c2cccc(Cl)c2)c2ncc[nH]2)C(=O)N3)CC1` [Entry 48, (3Z)-3-[(3-chlorophenyl)(1H-imidazol-2-yl)methylidene]-5-[(1-ethylpiperidin-4-yl)amino]-1,3-dihydro-2H-indol-2-one], the half-inhibitory concentration (IC50) on Flt-1 was 50 to 500 nM; against EGFR, 50 to 500 nM; at PDGFR alpha, less than 50 nM; in experiment [1], less than 50 nM; at Fyn, less than 50 nM; on EphA2, 500 to 5000 nM. In addition, the IC50 was more than 5000 nM at IRK and less than 50 nM on FGFR1.

Regarding `CCN1CCC(Oc2ccc3c(c2)/C(=C(\c2cccc(Cl)c2)c2nc4ccccc4[nH]2)C(=O)N3)CC1` [Entry 35, (3Z)-3-[1H-benzimidazol-2-yl(3-chlorophenyl)methylidene]-5-[(1-ethylpiperidin-4-yl)oxy]-1,3-dihydro-2H-indol-2-one], the IC50 is 50 to 500 nM at Flt-1; 500 to 5000 nM at EGFR; less than 50 nM on PDGFR alpha; less than 50 nM in experiment [1]; less than 50 nM against Fyn; 500 to 5000 nM on EphA2. Besides, the results for the half-maximal inhibitory concentration (IC50) against IRK and at FGFR1 were 500 to 5000 nM and less than 50 nM, respectively.
